In patent US20100311805A1, “COMBINATION OF HISTONE DEACETYLASE INHIBITORS AND RADIATION” (NOVARTIS AG, priority 2005, published 2010):

Legend:
[1] = test system: H23 cell line; experiment: Annexin V-FITC/PI flow cytometry analysis of apoptosis, H23; type: cell-based, human
Description: (§1) LBH589 enhances radiation induced apoptosis. To study the effect of HDAC inhibition by LBH589 on apoptosis three in vitro experiments were performed. FIG. 2 show results from Annexin V-FITC/PI flow cytometry analysis of apoptosis. H23 and H460 cells lines were treated with 25 nM LBH589 for 18 hrs then irradiated with 3 Gy. Twenty (20) hours later, cells were harvested, stained with Annexin-FITC and PI, and analyzed by flow cytometry. Shown is the number of apoptotic cells and standard error (n=3) for each treatment condition. *P<0.05 compared to control.

[2] = test system: cleaved caspase3; experiment: Western immunoblot for cleaved caspase3, H460 whole cell lysates; type: cell-based, human
Description: (§2) Western Immunoblots. LLC, H450 and H23 cells are serum starved overnight in DMEM/F-12 media (Gibco). Cells are then treated with 10 μM of Compound III for 1 hour and/or irradiated with 3 Gy. Cells are washed twice with PBS and lysis buffer ([…] Tris, 150 mM NaCl, 1 mM EDTA, 1% Triton X-100, 2.5 mM Na PP, 1 mM phenylmethylsulfonyl fluoride, and 1 μg/mL leupeptin) are added. Protein concentration are quantified by the Bio-Rad method. Twenty (20) μg of total protein are loaded into each well and separated by 7% or 10% SDS-PAGE gel, depending on the size of the target protein being investigated. The proteins are transferred onto nitrocellulose membranes (Hybond ECL; Amersham, Arlington Heights, Ill.) and probed with primary antibodies to caspase3, cleaved caspase3, phospho-Akt, Akt, PDGFR α and β (Cell Signaling; 1:1000). Blots are washed and probed with goat anti-rabbit secondary antibody (Sigma; 1:1000). Cleavage of caspase 3 was analyzed to verify the role of apoptosis in cells treated with LBH589 and radiation. Western blot analysis was performed on H23 and H460 whole cell lysates. […] LBH589 induced caspase3 cleavage. H23 and H460 cells were treated with 25 nM LBH589 for 18 hours then irradiated with 3 Gy. Six hours later, protein was extracted, quantified, run in a 12% SDS-polyacrylamide gel, transferred, and probed with antibodies to cleaved caspase3 and actin. […]

[3] = test system: HDAC4; experiment: HDAC4 immunostaining (compartmentalization), H460; type: cell-based, human
Description: (§3) Immunostaining of HDAC4 was performed on H23 and H460 cell lines to identify the effect of LBH589 on HDAC4 compartmentalization. […] When H460 cells were treated with 3 Gy, HDAC4 localized to the nucleus at 2 hours and minimal HDAC4 was present in the cytoplasm.

[4] = test system: γ-H2AX foci; experiment: γ-H2AX foci immunostaining, H23; type: cell-based, human
Description: LBH589 prolongs the duration of radiation induced γ-H2AX foci. Immunostaining was performed to study γ-H2AX foci present at DNA double strand breaks. […] The red staining of γ-H2AX foci and blue staining of the DAPI counterstain are shown. 3 Gy induced γ-H2AX foci as early as 30 minutes following treatment. These foci disappeared by 6 hrs in cell lines treated with IR alone. […] In comparison, LBH589 added 18 hours prior to IR prolonged the duration of γ-H2AX foci for up to 24 hours after IR (42 hours after LBH589 administration). […] LBH589 prolongs duration of γ-H2AX foci in irradiated lung cancer cells. H23 cell line received the indicated treatment of 25 nM LBH589 and/or 3 Gy. Anti-γ-H2AX antibody was used for immunostaining with rhodamine red labeled secondary antibody (red). Cells were counterstained with DAPI (blue). Shown are representative photographs of the H23 cells line (A) at the indicated time points after IR. Arrows point to apoptotic cells. B, shown is the mean and standard error of cells with γ-H2AX nuclear foci. *P<0.05 compared to control.

[5] = test system: HDAC4; experiment: HDAC4 immunostaining (compartmentalization), H23; type: cell-based, human; conditions: LBH589 added prior to IR
Description: as §3

[6] = test system: H23 cell line; experiment: Nuclear morphology (pyknotic nuclei) by DAPI staining, H23; type: cell-based, human
Description: (§4) To confirm the ability of LBH589 to sensitize human lung cancer cell lines to radiation induced apoptosis, nuclear morphology studies were performed. […] DAPI staining of cells treated with LBH589 and IR. Cells were subcultured onto slides and treated with 25 nM LBH589 for 18 hours followed by 3 Gy. Eighteen (18) hours later cells were fixed and stained with DAPI. Shown is the percentage of pyknotic nuclei and standard error (n=3) determined by manual counts from microscopy. *P<0.05 compared to control.

[7] = test system: H460 cell lines; experiment: Clonogenic analysis of H460 cell lines with LBH589 and 0-6 Gy; type: cell-based, human
Description: Results. LBH589 sensitizes NSCLC to the cytotoxic effects of ionizing radiation. Clonogenic analysis of H460 cell lines was performed using LBH589 and 0-6 Gy. […] Cells were suspended, counted with a hemocytometer, and plated at specific cell densities. Once attached, cells were treated with LBH589 for 1 hour or 18 hours followed by 0, 2, 4, or 6 Gy. Media was changed after IR and the cells were allowed to proliferate for 10 days. Shown is the average and standard error of the relative fractions of colonies (n=3).

[8] = test system: H460 cell line; experiment: Annexin V-FITC/PI flow cytometry analysis of apoptosis, H460; type: cell-based, human
Description: as §1

[9] = test system: γ-H2AX foci; experiment: γ-H2AX foci immunostaining, H460; type: cell-based, human
[10] = test system: H460 cells; experiment: Tumor growth delay in H460 xenograft tumor model; type: in vivo, nude mice; conditions: 10-fold increase in tumor volume as reference
Description: Tumor Volume Assessment. LLC, H450 and H23 cells are implanted into C57BL6 and nude mice, respectively. 106 viable cells suspended in 0.1 mL of cell medium are injected s.c. into the hind-limb. Each group of mice are comprised of 12 mice which are stratified into two groups to create approximately the same mean tumor volume. The mean volume of the tumors in mice at the time of treatment (day 0) with radiation, control, irradiated, LBH589 alone and LBH589 given prior to radiation are approximately 200 mm^3. Irradiated mice are immobilized with 140 μL of ketamine, and the entire body are shielded with lead, except for the tumor-bearing hind limb. A total dose of 21 Gy are administered in seven fractionated doses on days 0-4, 7 and 8. The LBH589 group receive of LBH589 administered p.o. via esophageal injection on days-1 and 6.
Tumor volumes were measured on days 0, 2, 4, 7, 9, 11, 14, 16, 18, 20 and 22 using skin calipers. Tumor volumes were calculated from a formula (a×b×c/2) that are derived from the formula for an ellipsoid (πd3/6). Data were calculated as the percentage of original (day 0) tumor volume and graphed as fractional tumor volume±SD for each treatment group. […]
H460 cells were injected in the hind limb of nude mice and allowed to grow for one week. […] B, shown is the mean tumor growth delay and standard error calculated using a 10-fold increase in tumor volume as reference.

[11] = test system: H460 cell line; experiment: Nuclear morphology (pyknotic nuclei) by DAPI staining, H460; type: cell-based, human
Description: as §4

[12] = mouse, in vivo
Description: LBH589 enhances tumor growth delay in vivo. H460 cells were injected into the hind limb of mice. After tumor formation the mice were treated with two oral doses of 40 mg LBH589 and/or five 3 Gy fractions over seven days. […] IR alone delayed growth by approximately 4 days (P<0.001).

[13] = test system: cleaved caspase3; experiment: Western immunoblot for cleaved caspase3, H23 whole cell lysates; type: cell-based, human
Description: as §2

[14] = 25 nM LBH589 18 hours prior to IR 3 Gy, 6 hours later
[15] = 25 nM LBH589 18 hours prior to 3 Gy, 18 hours later

For `Cc1[nH]c2ccccc2c1CCNCc1ccc(/C=C/C(=O)NO)cc1` [LBH589, N-hydroxy-3-[4-[[[2-(2-methyl-1H-indol-3-yl)-ethyl]-amino]methyl]phenyl]-2E-2-propenamide], the “number of apoptotic cells” value ([1]; 25 nM LBH589 18 hrs prior to 3 Gy, 20 hours later, control 7%) was 30%, the “number of apoptotic cells” value ([1]; LBH589 alone 25 nM) was “only a minimal increase” and the caspase3 cleavage [2, 14] was “increased levels of caspase3 cleavage”. For the same molecule, the caspase3 cleavage ([2]; treatment with 25 nM LBH589) was “increase in caspase3 cleavage was evident”, the HDAC4 nuclear localization ([3]; LBH589 added prior to IR 3 Gy) was “markedly limited HDAC4 nuclear localization” and the “HDAC4 staining / localization” value ([3]; LBH589 alone) was “background HDAC4 staining in the cytoplasm and nucleus”. For the same molecule, the “cells with γ-H2AX nuclear foci at 24 hours” value ([4]; 25 nM LBH589 alone) was < 5%, the “residual γ-H2AX foci at 24 hours” value ([4]; 25 nM LBH589 prior to IR 3 Gy) was 60% and the “duration of γ-H2AX foci after IR” value ([4]; LBH589 added 18 hours prior to IR 3 Gy) was “up to 24 hours”. For the same molecule, the γ-H2AX foci ([4]; LBH589 alone for 20 hours) was “modest increase in γ-H2AX foci”, the HDAC4 nuclear localization [5] was “A similar effect was seen” and the “percentage of pyknotic nuclei” value [6, 15] was “over 10%”. For the same molecule, the apoptotic nuclei ([6]; LBH589 alone) was 4%, the “colony survival compared to untreated cells” value ([7]; LBH589 1 hour and 18 hours prior to IR (0-6 Gy), 10 days proliferation) was “synergistic decrease in colony survival” and the plating efficiency ([7]; LBH589 alone for 1 hour, compared to the control) was “no reduced plating efficiency”. For the same molecule, the plating efficiency ([7]; LBH589 alone for 18 hours) was “significantly reduced plating efficiency”, the “number of apoptotic cells” value ([8]; 25 nM LBH589 18 hrs prior to 3 Gy, 20 hours later, control 6%) was 25% and the “number of apoptotic cells” value ([8]; LBH589 alone 25 nM) was “only a minimal increase”. For the same molecule, the “cells with γ-H2AX nuclear foci at 24 hours” value ([9]; 25 nM LBH589 alone) was < 5%, the “residual γ-H2AX foci at 24 hours” value ([9]; 25 nM LBH589 prior to IR 3 Gy) was 60% and the tumor growth delay ([10]; LBH589 alone, two oral doses of 40 mg over seven days) was “two”. For the same molecule, the tumor growth delay ([10]; combined: two oral doses of 40 mg LBH589 and five 3 Gy fractions over seven days) was “approximately 20 days”, the “percentage of pyknotic nuclei” value [11, 15] was “over 10%” and the apoptotic nuclei ([11]; LBH589 alone) was 2%. The “signs of toxicity as monitored by weight loss and mobility” value [12] was “minimal signs of toxicity”, the “caspase3 cleavage, increase with LBH589 prior to IR” value [13, 14] was “not as prominent” and the caspase3 cleavage ([13]; treatment with 25 nM LBH589) was “increase in caspase3 cleavage was evident”.
